Structures can show the parent of a compound that is named as a salt. Blank lines part the entries; values can stand above or below the molecule they belong to.
Assays:
breast cancer lines = conditions: one of two lines studied; cited from earlier work
human pancreatic tumors = conditions: several tumors, nude mice; cited from earlier work
[1] = test system: human tumor xenografts of diverse histological types; conditions: cited from earlier work
orthotopic glioma = conditions: nude mice; cited from earlier work
[2] = test system: human glioblastoma cell line; conditions: in vitro; cited from earlier work
[3] = test system: histologically diverse tumor cells; conditions: cited from earlier work
[4] = test system: human colon (GC3) xenograft; experiment: human colon (GC3) mouse xenograft test procedure; type: in vivo, mice; conditions: gemcitabine on days 1, 4, 8 in cycle 1 only; CCI-779 daily x5 for 2 consecutive weeks every 21 days, 3 cycles
Experimental: Female CBA/CaJ mice (Jackson Laboratories, Bar Harbor, Me.), 4 weeks of age, were immune-deprived by thymectomy, followed 3 weeks later by whole-body irradiation (1200 cGy) using a ^137Cs source. Mice received 3×10^6 nucleated bone marrow cells within 6-8 h of irradiation. Tumor pieces of approximately 3 mm^3 were implanted in the space of the dorsal lateral flanks of the mice to initiate tumor growth. Tumor-bearing mice were randomized into groups of seven prior to initiating therapy. Mice bearing tumors each received drug when tumors were approximately 0.20-1 cm in diameter. Tumor size was determined at 7-day intervals using digital Vernier calipers interfaced with a computer. Tumor volumes were calculated assuming tumors to be spherical using the formula [(π/6)×d^3], where d is the mean diameter. CCI-779 was given on a schedule of 5 consecutive days for 2 weeks with this cycle repeated every 21 days for 3 cycles. […] The schedule of the other chemotherapy drug for each study was as follows: Gemcitabine on days 1, 4, 8 in cycle 1 only. […] In this test procedure, CCI-779 was given daily 5 for 2 consecutive weeks every 21 days for 3 cycles and gemcitabine given on days 1, 4, and 8 in the first cycle only.

mTOR = mTOR (Homo sapiens, UniProt P42345+P62942); experiment: Western blot of p70s6 kinase serine389 phosphorylation in growth factor stimulated cells; type: cell-based
Experimental: Cell lines were grown in optimal basal medium supplemented with 10% fetal bovine serum and penicillin/treptomycin. For phosphorylation studies, cells were subcultured in 6-well plates. After the cells have completely attached, they were serum-starved. Treatment with mTOR inhibitors ranged from 2 to 16 hours. After drug treatment, the cells were rinsed once with PBS (phosphate buffered saline without Mg^2+ and Ca^2+) and then lysed in 150-200 μl NuPAGE LDS sample buffer per well. The lysates were briefly sonicated and then centrifuged for 15 minutes at 14000 rpm. Lysates were stored at minus −80° C. until use.
The test procedure can also be run by incubating the cells in growth medium overnight, after they have completely attached.
1) Prepare total protein samples by placing 22.5 μl of lysate per tube and then add 2.5 μl NuPAGE sample reducing agent. Heat samples at 70° C. for 10 minutes. Electrophorese using NuPAGE gels and NuPAGE SDS buffers.
2) Transfer the gel to a nitrocellulose membrane with NuPAGE transfer buffer. The membrane is blocked for 1 hour with blocking buffer (Tris buffered saline with 0.1% Tween and 5% nonfat-milk). Rinse membranes 2× with washing buffer (Tris buffered saline with 0.1% Tween).
3) Blots/membranes are incubated with the Phospho-p70 S6 Kinase (Thr^389) primary antibody (1:1000) in blocking buffer overnight at 4° C. in a rotating platform. […]

SMILES: CO[C@H]1C[C@@H]2CC[C@@H](C)[C@@](O)(O2)C(=O)C(=O)N2CCCC[C@H]2C(=O)O[C@H]([C@H](C)C[C@@H]2CC[C@@H](OC(=O)C(C)(CO)CO)[C@H](OC)C2)CC(=O)[C@H](C)/C=C(\C)[C@@H](O)[C@@H](OC)C(=O)[C@H](C)C[C@H](C)/C=C/C=C/C=C/1C [CCI-779, rapamycin 42-ester with 3-hydroxy-2-(hydroxymethyl)-2-methylpropionic acid]
growth of breast cancer lines in vivo (breast cancer lines): inhibited
growth of human pancreatic tumors (human pancreatic tumors): inhibited
sensitivity of gliomas in vivo ([1]; gliomas): particularly sensitive
activity against human tumor xenografts ([1]; nude mice, diverse histological types): has activity
activity in orthotopic glioma model (orthotopic glioma): active
growth factor (platelet-derived)-induced stimulation [2]: markedly suppressed
sensitivity of tumor cell lines in vitro ([3]; CNS cancer, leukemia (T-cell), breast cancer, prostate cancer and melanoma lines): among the most sensitive
growth of tumor cells in vitro ([3]; a number of histologically diverse tumor cells): inhibit the growth
cell cycle effect [3]: arrested cells in the G1 phase

SMILES: Nc1ccn([C@@H]2O[C@H](CO)[C@@H](O)C2(F)F)c(=O)n1 [gemcitabine, 2′-deoxy-2′,2′-difluorocytidine monohydrochloride ((beta)-isomer)]
tumor regression in the first cycle [4]: tumor regression seen in the first cycle

phosphorylation of serine389 of p70s6 kinase (mTOR): completely blocks
SMILES: CO[C@H]1C[C@@H]2CC[C@@H](C)[C@@](O)(O2)C(=O)C(=O)N2CCCC[C@H]2C(=O)O[C@H]([C@H](C)C[C@@H]2CC[C@@H](O)[C@H](OC)C2)CC(=O)[C@H](C)/C=C(\C)[C@@H](O)[C@@H](OC)C(=O)[C@H](C)C[C@H](C)/C=C/C=C/C=C/1C [rapamycin]

Reference: patent publication US20060035904A1, “Antineoplastic combinations” (Wyeth, priority 2001, published 2006)
